Assay results taken from patent US11180497B2 (ANGEX PHARMACEUTICAL, INC., priority 2017, dated 2021).

Target: T1, Human IDO (Homo sapiens, UniProt P14902)
T1 construct: High control is Hela cells with IFNγ treatment; endogenous in cells; host or cells: HeLa cells treated with 25 ng/ml IFNγ
Test: HeLa cell IDO assay (IFNγ-treated cells, N-formylkynurenine by RapidFire/MS/MS)
Type: cell-based
Details: 25 ng/ml IFNγ, 200 μM Trp, 48 hours, class symbol

T1 sequence (P14902 whole entry): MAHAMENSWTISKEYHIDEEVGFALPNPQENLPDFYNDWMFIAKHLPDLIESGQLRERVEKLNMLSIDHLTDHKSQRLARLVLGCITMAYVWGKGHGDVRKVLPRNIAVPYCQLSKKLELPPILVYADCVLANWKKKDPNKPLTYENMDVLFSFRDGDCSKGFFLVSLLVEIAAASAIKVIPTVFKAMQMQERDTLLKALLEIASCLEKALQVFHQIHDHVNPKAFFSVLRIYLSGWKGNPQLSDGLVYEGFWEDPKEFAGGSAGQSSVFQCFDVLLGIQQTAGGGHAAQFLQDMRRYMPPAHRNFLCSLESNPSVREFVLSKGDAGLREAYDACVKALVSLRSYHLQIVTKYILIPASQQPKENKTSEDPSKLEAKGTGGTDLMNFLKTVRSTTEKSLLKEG

Compound | IC50 [nM]
N#Cc1ccc2nccc([C@H]3CC[C@@]4(CC3)C[C@@H]4C(=O)Nc3ccc(Cl)cc3)c2c1 [Compound 8-4B] | < 100
O=C(Nc1ccc(-n2cccn2)cc1)[C@H]1C[C@]12CC[C@H](c1ccnc3ccc(F)cc31)CC2 [Compound 1-22] | 100 to 1000
O=C(Nc1ccc(Cl)cc1)C1CC12CCC(c1ccnc3ccc(F)cc13)CC2 (centres unmarked) [Compound 5-4, N-(4-chlorophenyl)-6-(6-fluoroquinolin-4-yl)spiro[2.5]octane-1-carboxamide] | 100 to 1000
COc1cc2nccc([C@H]3CC[C@@]4(CC3)C[C@@H]4C(=O)Nc3ccc(Cl)cc3)c2cc1OC [Compound 8-4C] | < 100
O=C(Nc1ccc(Cl)cc1)C1CC2(CCC(c3ccnc4ccc(F)cc34)CC2)C1 (single isomer, unassigned) [Compound 16-7, N-(4-chlorophenyl)-7-(6-fluoroquinolin-4-yl)spiro[3.5]nonane-2-carboxamide] | < 100
O=C(Nc1ccc(C(F)(F)F)cn1)[C@H]1C[C@]12CC[C@H](c1ccnc3ccc(F)cc31)CC2 (stereo in doubt) [Compound 3-2, 6-(6-fluoroquinolin-4-yl)-N-(5-(trifluoromethyl)pyridin-2-yl)spiro[2.5]octane-1-carboxamide] | > 1000
O=C(Nc1ccccc1Cl)[C@H]1C[C@]12CC[C@H](c1ccnc3ccc(F)cc31)CC2 [Compound 2-2] | > 1000
COc1cc2nccc([C@H]3CC[C@@]4(CC3)C[C@@H]4C(=O)Nc3ccc(Cl)cc3)c2cn1 [Compound 8-4F] | < 100
O=C(N[C@H]1CC2(CC[C@H](c3ccnc4ccncc43)CC2)C1)c1ccc(Cl)cc1 (single isomer, unassigned) [Compound 21-5] | > 1000
O=C(Nc1ccc(F)cn1)[C@H]1C[C@]12CC[C@H](c1ccnc3ccc(F)cc31)CC2 [Compound 2-6] | < 100
O=C(Nc1ccc(Cl)cc1)C1CC2(CCN(c3ccnc4ccc(F)cc34)CC2)C1 [Compound 19-3, N-(4-chlorophenyl)-7-(6-fluoroquinolin-4-yl)-7-azaspiro[3.5]nonane-2-carboxamide] | 100 to 1000
O=C(Nc1ccc(Cl)cc1)C1(C2CCN(c3ccnc4ccc(F)cc34)CC2)CC1 [Compound 26-8, N-(4-chlorophenyl)-1-[1-(6-fluoroquinolin-4-yl)piperidin-4-yl]cyclopropane-1-carboxamide] | < 100
O=C(Nc1ccc(Cl)cc1)C1CC12CCC(c1ccnc3ccncc13)CC2 (racemic) [Compound 6-9, N-(4-chlorophenyl)-6-(1,6-naphthyridin-4-yl)spiro[2.5]octane-1-carboxamide] | < 100
O=C(Nc1ccc(I)cc1F)[C@H]1C[C@]12CC[C@H](c1ccnc3ccc(F)cc31)CC2 (single isomer, unassigned) [Compound 4-9] | < 100
O=C(Nc1ccc(Cl)cc1)C1CC12CCN(c1ccnc3ccc(F)cc13)CC2 (single isomer, unassigned) [Compound 12-7, N-(4-chlorophenyl)-6-(6-fluoroquinolin-4-yl)-6-azaspiro[2.5]octane-1-carboxamide] | > 1000
O=C(Nc1ccc(Cl)cc1)C1CC12CCC(c1ccnc3ccncc13)CC2 (single isomer, unassigned) [Compound 7-6, N-(4-chlorophenyl)-6-(1,6-naphthyridin-4-yl)spiro[2.5]octane-1-carboxamide] | < 100
O=C(NC1CC2(CCC(c3ccnc4ccc(F)cc34)CC2)C1)c1ccc(Cl)cc1 (single isomer, unassigned) [Compound 17-6, 4-chloro-N-(7-(6-fluoroquinolin-4-yl)spiro[3.5]nonan-2-yl)benzamide] | < 100
O=C(Nc1ccc(Cl)cc1)C1(C2CCC(c3ccnc4ccncc34)CC2)CC1 (mixture of isomers) [Compound 29-6, 1-(4-(1,6-naphthyridin-4-yl)cyclohexyl)-N-(4-chlorophenyl) cyclopropane-1-carboxamide] | < 100
O=C(Nc1ccc(Cl)cc1)C1(C2CCC(c3ccnc4ccncc34)CC2)CC1 (centres unmarked) [Compound 28-5, 1-(4-(1,6-naphthyridin-4-yl)cyclohexyl)-N-(4-chlorophenyl)cyclopropane-1-carboxamide] | < 100
O=C(Nc1ccc(Cl)cc1)C1CC12CCC(c1ccnc3ccncc13)CC2 (single isomer, unassigned) [Compound 7-7, N-(4-chlorophenyl)-6-(1,6-naphthyridin-4-yl)spiro[2.5]octane-1-carboxamide] | > 1000
